According to the OPERA property sets (Mansouri et al. 2018):
Peptide text beside a SMILES is read from it. * marks the point of attachment. NHtBu = CC(C)(C)N*

Row | Structure (SMILES) | logP
1 | CNC(=O)N(C)c1ccccc1 | 1.02
2 | COP(=S)(OC)Oc1ccc(Cl)cc1C#N | 3.41
3 | O=C(C(=O)c1ccco1)c1ccco1 | 1.24
4 | N#Cc1cccc(O)c1 | 1.7
5 | CC1(C)S[C@@H]2[C@H](NC(=O)C(C(=O)Oc3ccc4c(c3)CCC4)c3ccccc3)C(=O)N2[C@H]1C(=O)O (stereo not given in full) | 3.77
6 | CN1C(=O)c2ccccc2C1=O | 1.31
7 | CCCN(CC)C(CC)C(=O)Nc1c(C)cccc1C (stereo not given) | 3.69
8 | O=C(O)COc1cccc(Cl)c1 | 2.03
9 | Cn1c(N)nc2ccc(C#N)cc21 | 1.29
10 | CN(C)C(=O)Nc1ccc(Cl)c(Cl)c1 | 2.68
11 | CC1(c2ccncc2)CCC(=O)NC1=O (stereo not given) | 0.07
12 | C=CCNCC | 0.81
13 | O=S1(=O)OCC2C(CO1)C1(Cl)C(Cl)=C(Cl)C2(Cl)C1(Cl)Cl (stereo not given) | 3.66
14 | CCCCCC(=O)Nc1ccccc1 | 3.28
15 | CN(C)CC(CN1c2ccccc2Sc2ccccc21)N(C)C (stereo not given) | 4.76
16 | C=C(C)C(=O)OCCCC | 2.88
17 | Oc1ccc(N=C=S)cc1 | 2.74
18 | COC1CC(OC2CCC3(C)C(CCC4C3CCC3(C)C(C5=CC(=O)OC5)C(OC(C)=O)CC43O)C2)OC(C)C1O (stereo not given) | 2.53
19 | O=NN1CCN(N=O)CC1 | -0.85
20 | O=C(O)COc1cccc(Br)c1 | 2.22
21 | Nc1nc2nn[nH]c2c(=O)[nH]1 | -0.71
22 | C#CC(C)N(C)C(=O)Nc1ccc(Cl)cc1 (stereo not given) | 3
23 | CC(C)(C)C(=O)NC(CO)C(O)c1ccc([N+](=O)[O-])cc1 (stereo not given) | 1.33
24 | CCCCCNc1nc(NC(C)C)nc(SC(F)F)n1 | 5.2
25 | COP(=S)(OC)Oc1ccc([N+](=O)[O-])cc1Cl | 3.58
26 | O=c1ccn(C2OC(CO)C(O)C2O)c(=O)[nH]1 (stereo not given) | -1.98
27 | CCCCOc1ccc(OC(=O)NC)cc1 | 2.86

Row | Structure (SMILES) | logP
28 | CNC(=O)Oc1cccc2c1OC(C)(C)C2 | 2.32
29 | NC(Cc1ccc(F)cc1)C(=O)O (racemic) | -1.89
30 | NS(=O)(=O)c1ccc2c(c1)S(=O)(=O)NC=N2 | -0.7
31 | N#Cc1c(Cl)cccc1Cl | 2.74
32 | COc1ccc(OC(=O)N(C)C)cc1 | 1.53
33 | Cc1ccncc1 | 1.22
34 | CF | 0.51
35 | CNC(C)=O | -1.05
36 | O=[N+]([O-])C=Cc1ccccc1 | 2.11
37 | CCC(=O)OC1(c2ccccc2)CC(C)N(C)CC1C (stereo not given) | 3.13
38 | COc1c(O)c(OC)c(Cl)c(Cl)c1Cl | 3.74
39 | CCCC(N)=O | -0.21
40 | CC(=O)C=Cc1ccco1 | 1.35
41 | CC(=O)Nc1ccc(OC(C)=O)cc1 | 1.05
42 | NC(=O)c1ccc(Cl)cc1 | 1.55
43 | CCOC(=O)CC(=O)c1ccccc1 | 1.87
44 | Nc1ccccc1S | 1.43
45 | CCOC(=O)C(=O)Nc1ccccc1 | 1.48
46 | O=C(O)c1ccc(F)cc1 | 2.07
47 | CCCCSC1=CC(=O)c2ccccc2C1=O | 3.29
48 | CC1=CC(=O)C=C(C)C1=O | 1.22
49 | C=CCBr | 1.79
50 | CN1CCCC1 | 0.92
51 | NC(=O)Cn1ccnc1[N+](=O)[O-] | -1.22
52 | NC(=O)C1CCCN1C(=O)C(Cc1cn(C(=O)OCc2ccccc2)cn1)NC(=O)C1CCC(=O)N1 (stereo not given) | -0.11
53 | O=S(=O)(CF)Nc1ccc(Cl)cc1 | 2.25
54 | CCOc1ccccc1S(I)=C(N(C)C)N(C)C (stereo not given) | -0.06

Row | Structure (SMILES) | logP
55 | CC(=O)Nc1ccc(O)c(C)c1C | 0.57
56 | O=C1C=CC(=O)N1 | -0.29
57 | CC[C@H](C)C(=O)O[C@H]1C[C@H](O)C=C2C=C[C@H](C)[C@H](CC[C@@H]3C[C@@H](O)CC(=O)O3)[C@H]21 | 2.42
58 | CCCCNCCC | 2.12
59 | CCc1ccccc1-c1nc(N)nc(N)n1 | 1.65
60 | CNC(=O)Oc1ccc(C(C)C)c(C)c1 | 3.11
61 | CC(=O)NC(C)C(=O)NCC(=O)NC(C)C(=O)NC(C)(C)C (stereo not drawn) (Ac-Ala-Gly-Ala-NHtBu; configuration not given here) | -0.6
62 | CC(=O)C(=Cc1cccc(Cl)c1)C(C)=O | 2.26
63 | Clc1ccc(Cl)c(-c2cc(Cl)ccc2Cl)c1 | 6.09
64 | Cc1c[nH]c2ccccc12 | 2.6
65 | FC(F)(F)C(F)(F)F | 2
66 | COC(=O)CCCc1ccccc1 | 2.77
67 | O=c1[nH]c2ccccc2o1 | 1.16
68 | NC1=CC(=O)c2ccccc2C1=O | 1.77
69 | CNP(=O)(OC)Oc1ccccc1Cl (stereo not given) | 1.61
70 | OCCCF | -0.28
71 | Brc1ccsc1Br | 3.53
72 | N#CC(=Cc1ccccc1)C(N)=O | 1.56
73 | C=CC1(C)OC(=O)N(c2cc(Cl)cc(Cl)c2)C1=O (stereo not given) | 3.1
74 | CC(=O)Nc1ccc(O)cc1C | 0.17
75 | CCCCN(N=O)C(N)=O | 1.04
76 | CNC(=O)Oc1cc(C)c(C)cc1C | 2.52
77 | Oc1cccc2cccnc12 | 2.02
78 | NC(=O)c1cccc(Br)c1 | 1.65
79 | Cc1c(Cl)cccc1Nc1ccccc1C(=O)O | 5.17
80 | N[C@@H](CS)C(=O)O | -2.49
